Assay results reported in patent publication US12102618B2, “Use of riluzole prodrugs to treat ataxias” (Biohaven Therapeutics Ltd., priority 2017, dated 2024).

Assays:
Type in all cases: in vivo, human
[1] = test system: patients with Spinocerebellar Ataxia (SCA); assay: BHV4157-201 open-label extension phase, interim analysis: modified SARA (axial items)
Description: This example describes a study entitled: Interim Extension Phase Analyses of Study BHV4157-201: Phase IIb/III, Randomized, Double-blind, Placebo-controlled Trial of Troriluzole (BHV-4157) in Adult Subjects with Spinocerebellar Ataxia followed by 96-Week Open-Label Extension Phase.
To date, all subjects have had the chance to complete the Week 24 visit from the long term, open-label extension phase of the trial.
BHV4157-201 is an on-going Phase IIb/III, multicenter, randomized, double-blind, 2-arm placebo-controlled parallel-group study designed to assess safety, tolerability, and efficacy in a population of patients with Spinocerebellar Ataxia (SCA). The study is comprised of two periods: an 8-week randomization period, followed by a 96-week open-label extension period. Regarding key entry criteria, subjects were male and female outpatients between the ages of 18-75 years, inclusive, with a known or suspected diagnosis of the following hereditary ataxias: SCA1, SCA2, SCA3, SCA6, SCA7, SCA8 and SCA10. All subjects completed genetic testing to confirm the diagnosis of hereditary ataxias. The primary objective of the study is to compare the efficacy of troriluzole versus placebo on ataxia symptoms in patients with SCA as measured by the total score on the Scale for the Assessment and Rating of Ataxia (SARA). Secondary objectives include assessments of functional disability, non-ataxia symptoms associated with SCA, global functioning, performance-based measures of ataxia, and neuropsychiatric and cognitive functioning.
During the 8-week Randomization Phase of the study, which has been completed, 141 subjects were randomized, in a 1:1 ratio, to receive either BHV-4157 (140 mg daily) or Placebo. Subjects completing the Randomization Phase were offered approximately 96 weeks of open-label treatment, provided the investigator believed open-label treatment offered an acceptable risk-benefit profile.

[2] = test system: subjects with spinocerebellar ataxia (SCA); assay: Same trial: Clinical Global Impression-Global Improvement (CGI-I)
Description: Clinical Global Impression-Global Improvement (CGI-I)
(§1) The study is a Phase IIb/III, multicenter, randomized, double-blind, 2-arm placebo-controlled parallel-group study designed to assess safety, tolerability, and efficacy signals in a population of patients with Spinocerebellar Ataxia (SCA). Subjects will be randomized to receive placebo (QD) or BHV-4157 (140 mg QD), stratified by diagnosis (genotype) and baseline severity (Gait Item of the SARA of ≤4 and >4). Subjects with SCA3 genotype will be limited to comprise up to approximately 10% of the total population so that this most common type of SCA is not over-represented.

[3] = test system: subjects with spinocerebellar ataxia (SCA); assay: Same trial: Patient Global Impression of Change (PGI-C)
Description: This is a patient self-reported global index scale that may be used to rate the response of a condition to a therapy.
(§2) Study Type: Interventional Study Design: Allocation: Randomized • Intervention Model: Parallel Assignment • Masking: Quadruple (Participant, Care Provider, Investigator, Outcomes Assessor) • Primary Purpose: Treatment • Official Title: A Phase IIb/III, Randomized, Double-blind, Placebo-controlled Trial of BHV-4157 in Adult Subjects With Spinocerebellar Ataxia Primary Outcome Measures: • To measure the change in total score on the Scale for Assessment and Rating of Ataxia (SARA) [Time Frame: The change in total score from baseline to week 8.] Secondary Outcome Measures: • To assess the safety and tolerability of BHV-4157 in subjects with SCA by measuring the frequency and severity of adverse events and discontinuations of adverse events. [Time Frame: Baseline to week 8.] Measured by the frequency and severity of adverse events and discontinuations of adverse events. • To compare efficacy of BHV-4157 with placebo on patient impression of benefit via use of the PGI-C [Time Frame: Baseline to Week 8] Change in PGI-C score
as §1

[4] = test system: subjects with spinocerebellar ataxia (SCA); assay: Further analysis of Example 1 study: Modified SARA, 8 week change from baseline; settings: for change in SARA score (difference BHV-4157 vs placebo): enriched genotypes
Description: This example describes a further analysis of the study of Example 1.

[5] = Tolerability in BHV4157-201 trial; settings: patients with SCA
Description: as §2, with “Secondary Outcome Measures: • To assess the safety and tolerability of BHV-4157 in subjects with SCA by measuring the frequency and severity of adverse events and discontinuations of adverse events. [Time Frame: Baseline to week 8.]” left out, “Change in PGI-C score” left out
BHV4157-201 is an on-going Phase IIb/III, multicenter, randomized, double-blind, 2-arm placebo-controlled parallel-group study designed to assess safety, tolerability, and efficacy in a population of patients with Spinocerebellar Ataxia (SCA). […] The primary objective of the study is to compare the efficacy of troriluzole versus placebo on ataxia symptoms in patients with SCA as measured by the total score on the Scale for the Assessment and Rating of Ataxia (SARA). […]

[6] = test system: ataxia symptoms in subjects with spinocerebellar ataxia (SCA); assay: Phase IIb/III randomized, double-blind, placebo-controlled trial of BHV-4157 in SCA (BHV4157-201), 8-week randomization phase: SARA; settings: Females
Description: One measure for assessment of the methods of the present invention is by using the Scale for the Assessment and Rating of Ataxia (“SARA”).
The SARA was developed as a clinician-administered instrument to measure severity of symptoms in patients with SCA. While there are multiple scales available, the SARA has been tested in many patients with SCA.
The SARA scores range from 0 (no ataxia) to 40 (severe). The SARA takes approximately 15 minutes to administer. Assessed items include: • Gait (rated 0 to 8) • Stance (0 to 6) • Sitting (0 to 4) • Speech disturbance (0 to 6) • Finger chase (0 to 4) • Nose-finger test (0 to 4) • Fast alternating hand movements (0 to 4) • Heel-shin slide (0 to 4)
Once each of the 8 categories has been assessed, the total score is calculated to determine the severity of ataxia. For motor activities of the four extremities (items 5-8), assessments are performed bilaterally and the mean values are used to obtain the total score.
The purpose of this study is to compare the efficacy of BHV-4157 versus placebo on ataxia symptoms in subjects with spinocerebellar ataxia (SCA).
as §2, §1
Dosing will continue for 8 weeks. Subjects will return to the clinic two weeks after discontinuing study medication for a follow-up safety visit. In addition, subjects completing the Randomization Phase will be offered 48 weeks of open-label treatment as long as the PI believes open-label treatment offers an acceptable risk-benefit profile. Subjects who agree to enter the Extension Phase will not be required to wash-out of drug or complete the follow-up safety visit, but instead should continue dosing as specified in the extension phase. Subjects entering the Extension Phase would have their first Extension Visit four weeks after the Week 8 Randomization Phase visit. If there is a delay of two weeks or more in dosing between the Randomization Phase and the Extension Phase, subjects will be required to complete an Extension Baseline Visit. Thereafter, subjects will undergo visits every fourth week through Week 12 of this phase. Then subjects will undergo visits every 12 weeks up to Week 48 of this phase.

CN(CC(=O)Nc1nc2ccc(OC(F)(F)F)cc2s1)C(=O)CNC(=O)CN [BHV-4157, troriluzole]
Mod SARA change (SD) from Randomization Baseline ([1]; All Patients, 8 weeks): −0.4 (1.50) | Mod SARA change (SD) from Randomization Baseline ([1]; All Patients, 36 weeks): −0.1 (1.30) | Mod SARA change (SD) from Randomization Baseline ([1]; Female Subgroup, 8 weeks): −0.3 (1.48) | Mod SARA change (SD) from Randomization Baseline ([1]; Female Subgroup, 24 weeks): −0.4 (1.32) | Mod SARA change (SD) from Randomization Baseline ([1]; Female Subgroup, 36 weeks): −0.1 (1.41) | Mod SARA change (SD) from Randomization Baseline ([1]; Female Subgroup, 48 weeks): −0.1 (1.50) | Mod SARA change (SD) from Randomization Baseline ([1]; Low Weight Subgroup, 8 weeks): −0.6 (1.56) | Mod SARA change (SD) from Randomization Baseline ([1]; Low Weight Subgroup, 24 weeks): −0.5 (1.44) | Mod SARA change (SD) from Randomization Baseline ([1]; Low Weight Subgroup, 36 weeks): −0.3 (1.34) | Mod SARA change (SD) from Randomization Baseline ([1]; Low Weight Subgroup, 48 weeks): −0.2 (1.41) | Mod SARA change (SD) from Randomization Baseline ([1]; Non-SCA1 & SCA2, 8 weeks): −0.3 (1.58) | Mod SARA change (SD) from Randomization Baseline ([1]; Non-SCA1 & SCA2, 24 weeks): −0.3 (1.24) | Mod SARA change (SD) from Randomization Baseline ([1]; Non-SCA1 & SCA2, 36 weeks): −0.1 (1.44) | Mod SARA change (SD) from Randomization Baseline ([1]; Non-SCA1 & SCA2, 48 weeks): −0.2 (1.44) | Mod SARA change (SD) from Randomization Baseline ([1]; SCA1 & SCA2, 8 weeks): −0.5 (1.47) | Mod SARA change (SD) from Randomization Baseline ([1]; SCA1 & SCA2, 24 weeks): −0.4 (1.45) | Mod SARA change (SD) from Randomization Baseline ([1]; SCA1 & SCA2, 36 weeks): −0.1 (1.20) | Mod SARA change (SD) from Randomization Baseline ([1]; SCA1 & SCA2, 48 weeks): 0.1 (1.44) | improvement in the axial SARA score ([1]; at 6 months): −0.1 point | CGI Much Improved ([2]; Lighter at EXP sites): 14% | CGI Any Improvement ([2]; Lighter at EXP sites, n = 15): 60% (n = 15) | CGI Much Improved ([2]; Lighter sample): 27% | CGI Any Improvement ([2]; Lighter sample, n = 22): 64% (n = 22) | PGI Better and Definite . . . ([3]; Lighter at EXP sites): 19% | PGI Any Improvement ([3]; Lighter at EXP sites, n = 16): 45% (n = 16) | PGI “Better and Definite Improvement that has made a real & worthwhile difference” ([3]; Lighter sample): 17% | PGI Any Improvement ([3]; Lighter sample, n = 23): 34% (n = 23) | Modified SARA, week 8 StdChg ([4]; All SCA, n = 63, May-18): 0.453 | Modified SARA, week 8 Δ Mean ([4]; All SCA, n = 63, May-18): −0.429 | Modified SARA, week 8 StdChg ([4]; SCA1 and SCA2, first Stable column, n = 31): 0.405 | Modified SARA, week 8 Δ Mean ([4]; SCA1 and SCA2, first column headed Stable (−1 < diff < 1), n = 31, Stable 2 in Table 16): −0.387 | Modified SARA, week 8 StdChg ([4]; SCA1 and SCA2, n = 33): 0.399 | Modified SARA, week 8 Δ Mean ([4]; SCA1 and SCA2, n = 33, May-18): −0.424 | Modified SARA, week 8 StdChg ([4]; SCA1 and SCA2, second Stable column, n = 14): 0.313 | Modified SARA, week 8 Δ Mean ([4]; SCA1 and SCA2, second column headed Stable (−1 < diff < 1), n = 14, Stable 1 in Table 16): −0.286 | change in SARA score (difference BHV-4157 vs placebo) ([4]; stable 2 group, 8 weeks): 0.24 | change in SARA score (difference BHV-4157 vs placebo) ([4]; stable group 1, 8 weeks): 0.20 | tolerability profile [5]: favorable | Responder Analysis, ≥3 points in All Subjects (n = 67) [6]: 32%
